Test results taken from ChEMBL document CHEMBL1201862, “PubChem BioAssay data set” (2004).
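Each compound was tested at five concentrations against cells in 96-well plates for 48 hours. Here, GI50 denotes the concentration required for 50% inhibition of growth.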 Calls of active or inactive are those of the source. Rule as the data show it: active = GI50 up to about 1.1 µM and inactive = higher.

What was measured:
Assay in all cases: NCI tumour cell line growth inhibition, 48 h
SW-620 = test system: SW-620
UO-31 = test system: UO-31
ACHN = test system: ACHN
A498 = test system: A498
T47D = test system: T47D
RPMI-8226 = test system: RPMI-8226
RXF 393 = test system: RXF 393
786-0 = test system: 786-0
HOP-92 = test system: HOP-92
TK-10 = test system: TK-10
MDA-N = test system: MDA-N
K562 = test system: K562
SF-539 = test system: SF-539
LOX IMVI = test system: LOX IMVI
HCT-15 = test system: HCT-15
SNB-75 = test system: SNB-75
OVCAR-4 = test system: OVCAR-4
SK-MEL-5 = test system: SK-MEL-5
U-251 = test system: U-251
SF-295 = test system: SF-295
NCI-H226 = test system: NCI-H226
A549 = test system: A549
SK-MEL-2 = test system: SK-MEL-2
BT-549 = test system: BT-549
CCRF-CEM = test system: CCRF-CEM
IGROV-1 = test system: IGROV-1
UACC-257 = test system: UACC-257
HCT-116 = test system: HCT-116
HOP-62 = test system: HOP-62
OVCAR-5 = test system: OVCAR-5
HL-60 = test system: HL-60
NCI/ADR-RES = test system: NCI/ADR-RES
KM12 = test system: KM12
NCI-H460 = test system: NCI-H460
DU-145 = test system: DU-145
Malme-3M = test system: Malme-3M
MDA-MB-231 = test system: MDA-MB-231
SF-268 = test system: SF-268
Hs-578T = test system: Hs-578T
CAKI-1 = test system: CAKI-1
EKVX = test system: EKVX
HCC 2998 = test system: HCC 2998
NCI-H23 = test system: NCI-H23
MOLT-4 = test system: MOLT-4
SNB-19 = test system: SNB-19
HT-29 = test system: HT-29
OVCAR-3 = test system: OVCAR-3
OVCAR-8 = test system: OVCAR-8
SR = test system: SR
SK-MEL-28 = test system: SK-MEL-28
COLO 205 = test system: COLO 205
MDA-MB-435 = test system: MDA-MB-435
SK-OV-3 = test system: SK-OV-3
UACC-62 = test system: UACC-62
PC-3 = test system: PC-3
MCF7 = test system: MCF7
SN12C = test system: SN12C
M14 = test system: M14
NCI-H522 = test system: NCI-H522

COc1ccc2c(c1)-c1c(c3ccccc3n1CCN1CCCCC1)CC2 was tested, and the GI50 (SW-620) was 26.1 µM (inactive), the GI50 (UO-31) was 12.6 µM (inactive) and the GI50 (ACHN) was 33.7 µM (inactive). The GI50 (A498) was 34 µM (inactive), the GI50 (T47D) was 18.9 µM (inactive) and the GI50 (RPMI-8226) was 11.3 µM (inactive). The GI50 (RXF 393) was 1.57 µM (inactive), the GI50 (786-0) was 16.9 µM (inactive) and the GI50 (HOP-92) was 21.8 µM (inactive). For the same molecule, the GI50 (TK-10) was 20.3 µM (inactive), the GI50 (MDA-N) was 23.7 µM (inactive) and the GI50 (K562) was 11.9 µM (inactive). The GI50 (SF-539) was 6.37 µM (inactive), the GI50 (LOX IMVI) was 16.3 µM (inactive) and the GI50 (HCT-15) was 13.3 µM. For the same molecule, the GI50 (SNB-75) was 14.8 µM (inactive), the GI50 (OVCAR-4) was 25.6 µM (inactive) and the GI50 (SK-MEL-5) was 14.6 µM (inactive). The GI50 (U-251) was 19.5 µM (inactive), the GI50 (SF-295) was 5.52 µM (inactive) and the GI50 (NCI-H226) was 17.2 µM (inactive). For the same molecule, the GI50 (A549) was 10.6 µM (inactive), the GI50 (SK-MEL-2) was 5.73 µM (inactive) and the GI50 (BT-549) was 23.1 µM (inactive). For the same molecule, the GI50 (CCRF-CEM) was 19.5 µM (inactive), the GI50 (IGROV-1) was 13.8 µM (inactive) and the GI50 (UACC-257) was 22.4 µM (inactive). The GI50 (HCT-116) was 13.1 µM (inactive), the GI50 (HOP-62) was 8.79 µM (inactive) and the GI50 (OVCAR-5) was 11.9 µM (inactive). For the same molecule, the GI50 (HL-60) was 2.63 µM (inactive), the GI50 (NCI/ADR-RES) was 6.25 µM (inactive) and the GI50 (KM12) was 6.07 µM (inactive). The GI50 (NCI-H460) was 16.6 µM (inactive), the GI50 (DU-145) was 53.8 µM (inactive) and the GI50 (Malme-3M) was 23.4 µM (inactive). The GI50 (MDA-MB-231) was 14.3 µM (inactive), the GI50 (SF-268) was 17.4 µM (inactive) and the GI50 (Hs-578T) was 9.82 µM (inactive). The GI50 (CAKI-1) was 21.6 µM (inactive), the GI50 (EKVX) was 26.8 µM (inactive) and the GI50 (HCC 2998) was 6.87 µM (inactive). For the same molecule, the GI50 (NCI-H23) was 18.3 µM (inactive), the GI50 (MOLT-4) was 15.9 µM (inactive) and the GI50 (SNB-19) was 23.7 µM (inactive). The GI50 (HT-29) was 10.3 µM (inactive), the GI50 (OVCAR-3) was 6.08 µM (inactive) and the GI50 (OVCAR-8) was 4.43 µM (inactive). For the same molecule, the GI50 (SR) was 6.64 µM (inactive), the GI50 (SK-MEL-28) was 30.2 µM (inactive) and the GI50 (COLO 205) was 13.2 µM (inactive). The GI50 (MDA-MB-435) was 24.9 µM (inactive), the GI50 (SK-OV-3) was 24.2 µM (inactive) and the GI50 (UACC-62) was 16.3 µM (inactive). The GI50 (PC-3) was 5.75 µM (inactive), the GI50 (MCF7) was 7.24 µM (inactive) and the GI50 (SN12C) was 22.4 µM (inactive). The GI50 (M14) was 5.47 µM (inactive) and the GI50 (NCI-H522) was 14.6 µM (inactive).
